Measurements from patent US7851592B2, “Compositions and methods for inhibiting G2 cell cycle arrest and sensitizing cells to DNA damaging agents” (CanBas Co. Ltd., priority 1999, dated 2010).
Where no end group is shown, it is not given here.

Columns and labels:
[1] = test system: Jurkat cells; experiment: Trypan blue dye exclusion analysis of Jurkat cells treated with bleomycin or colchicine with or without peptides; type: cell-based; conditions: for effect on cytotoxicity by colchicine: FIG. 3B, colchicine 5 μg/ml
Method: (§1) The effect of TAT-S216A and TAT-S216 on the cell death induced by bleomycin was examined. The results are shown in FIG. 3; Trypan blue dye exclusion analysis of Jurkat cells treated with bleomycin (A) or colchicine (B) with or without indicated peptides. Bars, SD Vertical axis, % viability of the cells; Bleo 5, bleomycin 5 μg/ml; Bleo 10, bleomycin 10 μg/ml; colchicine, 5 μg/ml; TAT-S216 or TAT-S216A, 10 μM of indicated peptide. […] C, survival analysis of PHA blasts treated with bleomycin and peptides. Vertical axis, % viability of the cells determined by trypan blue dye exclusion analysis; horizontal axis, time in hours. Bleo 5, bleomycin 5 μg/ml; Bleo 10, bleomycin 10 μg/ml; TAT-S216 or TAT-S216A, 10 μM of indicated peptide. D, FACS analysis of the cells treated with bleomycin and peptides. PHA-blasts were treated with bleomycin with or without peptides for 20 hr. Vertical axis, cell number; horizontal axis, DNA content indicated by propidium iodide staining.

[2] = test system: PHA blasts (mitogen-activated normal human T lymphocytes); experiment: Trypan blue dye exclusion survival analysis of PHA blasts treated with bleomycin and peptides; type: cell-based; conditions: FIG. 3C; bleomycin 5 and 10 μg/ml; peptide 10 μM
Method: Cell culture and plasmids. A human T-cell leukemia-derived cell line, Jurkat, was cultured in RPMI 1640 (Sigma) supplemented with 10% fetal calf serum. (IBL: Immuno-Biological Laboratories, Gunma, Japan) at 37° C./5% CO2. Human pancreatic epitheloid carcinoma-derived cell lines, MIA PaCa2 and PANC1, were cultured in Eagle's MEM (IWAKI, Chiba, Japan) and Dulbecco's modified Eagle's medium with 4 mM […] (Sigma) and 1.0 mM sodium pyruvate (Life Technologies, Inc., Grand Island, N.Y.), respectively, and supplemented with 10% fetal calf serum at 37° C./5% CO2. Normal human peripheral blood lymphocytes were collected by Ficoll-Paque (Amersham Pharmacia Biotech) density gradient. Two million cells/ml were cultured in RPMI 1640 supplemented with 10% fetal calf serum at 37° C./5% CO2 in the presence of 5 μg/ml PHA (Life Technologies, Inc.) for a week. Baculovirus lysates that include HA-tagged hChk1 (SEQ ID NO:3) or c-myc-tagged Chk2/HuCds1 (SEQ ID NO:4) and plasmid for GST-Cdc25C (amino, acid 200-256) were made as described in Matsuoka (1998) Science 282:1893-1897, and provided by Dr. Makoto Nakanishi (Department of Biochemistry, Nagoya City University.
The effect of TAT-S216A and TAT-S216 on the cell death induced by bleomycin was examined. […] Vertical axis, % viability of the cells determined by trypan blue dye exclusion analysis; horizontal axis, time in hours. […]

[3] = test system: PHA blasts (mitogen-activated normal human T lymphocytes); experiment: FACS analysis of PHA blasts treated with bleomycin and peptides; type: cell-based; conditions: FIG. 3D; for cell cycle pattern of PHA blasts, peptide in addition to bleomycin: 20 hr
Method: (§2) Cell-cycle analysis. The cell cycle status of the cells treated with peptides and/or bleomycin or colchicine was analyzed by FACS, as described by Kawabe (1997) Nature 385:454-458. In brief, two million Jurkat cells were re-suspended and incubated in 300 μl Krishan's solution (0.1% Sodium citrate, 50 μg/ml PI, 20 μg/ml RNase A and 0.5% NP-40; see supra) for 1 hr at 4° C. and analyzed by FACScan™ (Beckton Dickinson, Mountain View, Calif.) with the program CELLQuest™ (Beckton Dickinson).
as §1
In order to confirm the specificity of the effect of these peptides on cancer cells in which the G1 checkpoint is abrogated; the effect of these peptides on normal human cells was investigated. Mitogen-activated normal human T lymphocytes (PHA blasts) were prepared by stimulating peripheral blood mononuclear cells obtained from a healthy donor with PHA for 1 week. These cells were treated with bleomycin (5 and 10 μg/ml) in the presence or absence of either TAT-S216A or TAT-S216.

[4] = molecular target: T1, hChk1 (Homo sapiens, UniProt O14757, I471V); experiment: In vitro immune complex kinase assay, Cdc25C phosphorylation by purified hChk1; type: biochemical; conditions: FIG. 1B; peptide 10 μM; substrate 1 μM
T1 construct: made in house; host or cells: insect cells, recombinant baculovirus (lysates provided by Dr. Makoto Nakanishi)
T1 sequence (O14757 1-476 I471V): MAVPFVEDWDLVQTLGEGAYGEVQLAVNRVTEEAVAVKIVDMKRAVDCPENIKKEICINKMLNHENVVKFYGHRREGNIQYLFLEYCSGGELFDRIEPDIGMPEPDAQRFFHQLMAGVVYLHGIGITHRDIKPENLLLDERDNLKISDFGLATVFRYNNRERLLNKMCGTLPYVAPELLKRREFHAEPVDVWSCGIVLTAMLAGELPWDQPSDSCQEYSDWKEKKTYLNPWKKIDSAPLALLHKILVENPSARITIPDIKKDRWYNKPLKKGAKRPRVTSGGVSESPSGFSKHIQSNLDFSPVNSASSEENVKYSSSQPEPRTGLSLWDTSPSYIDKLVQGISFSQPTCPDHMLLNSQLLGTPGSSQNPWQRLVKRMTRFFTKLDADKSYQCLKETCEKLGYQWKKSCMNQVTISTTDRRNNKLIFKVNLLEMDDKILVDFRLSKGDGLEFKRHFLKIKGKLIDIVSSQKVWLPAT
Method: Kinase assay. HA-tagged hChk1 (SEQ ID NO:3) and c-myc-tagged Chk2/HuCds1 (SEQ ID NO:4) expressed in insect cells using recombinant baculovirus (see, e.g., Kaneko (1999) Oncogene 18:3673-3681) were purified by immunoprecipitation using anti-HA or anti-c-myc antibodies and protein G-Sepharose. Immune complex kinase reaction was done in PBS with 1 mM DTT, 1 mM MgCl2 and 100 μCi of [γ-^32P] ATP (Amersham; 6000 Ci/mmol) plus purified 1 μM GST-Cdc25C or 10 μM Cdc25C peptide (amino acid 211 to 221 of Cdc25C (SEQ ID NO: 2); […], Sawady Technology Co.) substrates at 30° C. for 15 min in the presence of 10 μM TAT-S216, TAT-S216A or TAT-Control. After the reaction, samples were separated in 12% or 15% SDS-PAGE and autoradiographed to detect GST-Cdc25C or peptide phosphorylation.
The results are shown in FIG. 1: TAT-S216A and TAT-S216 peptides inhibit hChk1 and Chk2/HuCds1 kinase activities in vitro. FIG. 1A. sequences of the peptides. FIG. 1B, in vitro phosphorylation analysis using GST-Cdc25C and purified hChk1. GST-Cdc25C (amino acid 200-256) that was produced in E. coli (DH5α) was used as substrate (1 μM). Immune complex kinase reaction was done in the presence of TAT-S216A (10 μM) or TAT-S216 (10 μM). FIG. 1C, in vitro phosphorylation analysis of hChk1 and Chk2/HuCds1 using synthesized Cdc25C peptide corresponding amino acid 211-221 of Cdc25C ([…] (SEQ ID NO: 2)) as a substrate (10 μM).

[5] = test system: Jurkat cells; experiment: Cell-cycle analysis by FACS, DNA damage-induced G2 arrest; type: cell-based, human; conditions: bleomycin 10 μg/ml
Method: as §2
(§3) The cell cycle status of the cells treated with TAT-S216A or TAT-S216 upon the DNA damage-induced G2 arrest was analyzed by FACS analysis. Histone H1 kinase activities of theses cells were simultaneously monitored. […] Results are shown in FIG. 2: abrogation of DNA damage-induced G2 arrest by TAT-S216A and TAT-S216 peptides. FIG. 2A, FACS analysis of Jurkat cells treated with bleomycin and peptides. Cells were treated with bleomycin (10 μg/ml) with or without peptides (10 μM) for 20 hr. B, histone H1 kinase analysis. Cell lysates were prepared from the cells treated with the indicated reagent for 6 hr. Concentrations used were: hydroxyurea (HU), 100 μg/ml; bleomycin (Bleo), 10 μg/ml; colchicine, 5 μg/ml; TAT-S216A and TAT-S216, 10 μM. C, FACS analysis of colchicine -and peptide-treated cells. Jurkat cells were treated with colchicine (5 μg/ml) with or without peptide (10 μM) for 20 hr.

[6] = test system: histone H1 kinase activity; experiment: Histone H1 kinase assay on lysates of treated Jurkat cells; type: cell-based, human; conditions: FIG. 2B, 6 hr
Method: Histone H1 kinase assay. Ten million Jurkat cells were treated with hydroxyurea (100 μg/ml), bleomycin (10 μg/ml), or colchicine (5 μg/ml) with or without addition of TAT-S216A, TAT-S216 or TAT-Control (10 μM) for 6 hr. The cells were washed in cold PBS and lysed at 4° C. in 1 ml of buffer A (50 mM Tris pH 8, 2 mM DTT, 5 mM EDTA, 100 mM NaCl, 0.5% NP40, 20 mM Na3V04, 50 mM NaF, 4 μM Okadaic acid, 5 μg/ml aprotinin, 5 μg/ml pepstatin A and 5 μg/ml leupeptin.). Twenty microliter of p13^suc1 agarose beads (Upstate Biotechnology., Saranac, N.Y.) were added to the cleared lysates, incubated for 4 hr at 4° C., and washed five times with buffer A without 5 mM EDTA, 20 mM Na3V04, 50 mM NaF, 4 μM Okadaic acid. Histone HI kinase activity on the beads were analyzed by using Cdc2 kinase assay kit (Upstate Biotechnology) with [γ-^32P] ATP, followed by 12% SDS-PAGE electrophoresis, and autoradiographed to detect the phosphorylated Histone H1.
as §3

[7] = test system: Jurkat cells; experiment: FACS DNA content of bleomycin-treated Jurkat cells with oligopeptides (Example 3); type: cell-based, human; conditions: FIG. 6, bleomycin 20 μg/ml, 0, 6, 12, 24 hours
Method: The cells with the deficient cell cycle G1 checkpoint (such as a human leukemia-derived cell line Jurkat) were treated with a DNA damaging treatment. As the DNA damaging treatment, the cells were treated with bleomycin or other anti-cancer drugs. These drugs were added to the cell culture medium. Alternatively, the cells were irradiated with gamma irradiation. Peptides were added to these cells and the amount of DNA was determined some 10 to 48 hours after the DNA damage. The harvested cells were re-suspended with the solution that includes propidium iodide, RNase and NP-40 and analyzed by flow cytometer. […]
Jurkat cells were cultured in 10% fetal calf serum with a medium (RPMI 1640) at 37° C./5% CO2 with: bleomycin at 20 μg/ml; bleomycin at 20 μg/ml and the peptide “4aa” (amino acid sequence is GGSPSM (SEQ ID NO: 1931)); bleomycin at 20 μg/ml and the peptide AAA (Table 1); bleomycin at 20 μg/ml and the peptide YNP (Table 1). The amount of DNA was analyzed at 0, 6, 12, 24 hours after the addition of ten microgram of bleomycin with or without the oligopeptides “4aa,” “YNP” and “AAA.” The DNA quantity was analyzed by a flow cytometer (FACS) after the addition of a solution comprising propidium iodide, RNase and NP-40. […]

[8] = test system: Jurkat cells; experiment: FACS DNA content of colchicine-treated Jurkat cells with oligopeptides (Example 3); type: cell-based, human; conditions: FIG. 7; colchicine 2.5 μg/ml
Method: Other screening methods can be used to identify selective inhibitors of the G2 cell cycle checkpoint. For, the cells are simultaneously treated with an oligopeptide “candidate phosphorylation substrate” and an M phase checkpoint activator, such as colchicine or nocodazol. The DNA content of the cells are analyzed some 10 to 48 hours after the treatment as described above.
In another experiment, an M phase checkpoint activator, colchicine, was used instead of bleomycin: colchicine at 2.5 μg/ml; colchicine at 2.5 μg/ml and the peptide “4aa”; colchicine at 2.5 μg/ml and the peptide AAA (Table 1); colchicine at 2.5 μg/ml and the peptide YNP (Table 1), and no treatment.

Substance: YGRKKRRQRRRLYRSPSMPENL [TAT-S216]
- effect on cytotoxicity by colchicine ([1]; peptide 10 μM): did not affect the cytotoxicity by colchicine
- effect on cytotoxicity of bleomycin to normal cells (PHA blasts) [2]: did not increase the cytotoxicity of bleomycin to normal cells
- cell cycle pattern of PHA blasts, peptide in addition to bleomycin [3]: no further alteration of cell cycle pattern was observed

Substance: YGRKKRRQRRRLYRSPAMPENL [TAT-S216A]
- effect on cytotoxicity by colchicine ([1]; peptide 10 μM): did not affect the cytotoxicity by colchicine
- effect on cytotoxicity of bleomycin to normal cells (PHA blasts) [2]: did not increase the cytotoxicity of bleomycin to normal cells
- cell cycle pattern of PHA blasts, peptide in addition to bleomycin [3]: no further alteration of cell cycle pattern was observed

Substance: TAT-Control: control peptide: TAT domain with Cdc25C portion partially deleted and substituted with glycine (GGRSPAMPE) (YGRKKRRQRRRGGRSPAMPE)
- phosphorylation of GST-Cdc25C (amino acid 200-256) by baculovirus-produced hChk1 [4]: did not inhibit
- G2 arrest in response to bleomycin ([5]; FIG. 2A, peptide 10 μM, 20 hr): arrested at G2 similarly to the cells treated with bleomycin alone
- histone H1 kinase activity on bleomycin treatment in the presence of peptide ([6]; bleomycin 10 μg/ml, peptide 10 μM): did not affect
- effect on bleomycin-induced cell death / viability of bleomycin-treated Jurkat cells ([1]; FIG. 3A, bleomycin 5 or 10 μg/ml, peptide 10 μM): did not affect the viability

Substance: Bleomycin [reference compound]
- cell cycle arrest of Jurkat cells by bleomycin alone [5]: arrested exclusively at G2
- histone H1 kinase activity on treatment with drug alone ([6]; bleomycin 10 μg/ml or hydroxyurea 100 μg/ml): decreased
- Jurkat cells killed, bleomycin alone ([1]; FIG. 3A, bleomycin at 5 or μ10 g/ml): 27-30%
- cell cycle arrest of PHA blasts by bleomycin alone ([3]; bleomycin 5 μg/ml): arrested at G1 and S phase but not G2

Substance: Y G G P G G G G N (YGGPGGGGN) [YPN]
- G2 checkpoint / accumulation of bleomycin-treated cells at G2/M [7]: specifically abrogated the cell cycle at the G2 checkpoint
- G2 checkpoint / accumulation of bleomycin-treated cells at G2/M ([7]; listed as YNP): abrogated the G2 checkpoint
- accumulation of colchicine-treated cells at the G2/M phase [8]: None of the above tested oligopeptides (Table 1), including, YPN, affected the accumulation
